Measurements from patent US8962322B2, “Enhancers of induced pluripotent stem cell reprogramming” (City of Hope, priority 2012, dated 2015).

Columns and labels:
OCT4 promoter = assay: Bisulfite genomic sequencing of OCT4 promoter in IMR90 fibroblasts; assay type: cell-based, human; conditions: IMR90 fibroblasts treated for two days
Method: To uncover the mechanism of OAC 1-mediated improvement of reprogramming efficiency, it was tested whether OAC 1 functions through regulation of DNA methylation status on the endogenous Oct4 promoter. Human IMR90 fibroblast cells were treated with OAC1 or vehicle control for two days.
Bisulfite Genomic Sequencing: Genomic DNA was isolated from human IMR90 fibroblasts, MEFs, mouse ESCs, 4F+OAC1 and 4F+OAC2-iPSCs by digestion with proteinase K, followed by phenolchloroform extraction and ethanol precipitation. Bisulfite conversion of genomic DNAs was carried out using the EZ DNA Methylation-Gold kit (Zymo Research) according to manufacturer's instruction. The bisulfite-modified DNA was then used as a template for PCR to amplify the promoter regions of Oct4 and Nanog using PCR primers for human OCT4 (1), mouse Oct4 (52) and Nanog (2). The amplified products were cloned into the pCR2.1-TOPO cloning vector (Invitrogen), and 10 randomly selected clones were sequenced with T7 or M13R primers.

[1] = test system: β-catenin-responsive reporter gene Topflash; assay: Topflash luciferase reporter assay in CV1 cells (Wnt signaling); assay type: cell-based; conditions: 1 μM OAC1 or 2 μM BIO, 48 hr
Method: Whether OAC1 regulates major signaling pathways that are critical for embryonic stem cell pluripotency was investigated. […] CV1 cells were transfected with the β-catenin-responsive reporter gene Topflash, and the transfected cells were treated with vehicle control or OAC1 (FIG. 6C). The glycogen synthase kinase 3β (GSK3β) inhibitor BIO was included as a positive control (42).
AzaC, 25 μg/ml Vc, 10 nM Am580, 5 μM tranylcypromine, and 0.5 mM VPA. Luciferase reporter assays were performed as described (51) 24 hr after compound treatment or at indicated time points. For Topflash reporter assays, 0.2 μg β-catenin-responsive Topflash reporter gene plasmid was introduced into CV1 cells using trasfection (Bio-Rad). Compounds were added 6 hr after transfection. Luciferase activity was measured 48 hr after compound treatment using the Glo Luciferase Assay System (Promega).

luciferase = luciferase (Photinus pyralis, UniProt P08659); conditions: read-out: EC50 of luciferase inhibition; at 40° C., loss of enzymatic activity as measurement; cited from earlier work
Chain of luciferase (P08659 whole entry): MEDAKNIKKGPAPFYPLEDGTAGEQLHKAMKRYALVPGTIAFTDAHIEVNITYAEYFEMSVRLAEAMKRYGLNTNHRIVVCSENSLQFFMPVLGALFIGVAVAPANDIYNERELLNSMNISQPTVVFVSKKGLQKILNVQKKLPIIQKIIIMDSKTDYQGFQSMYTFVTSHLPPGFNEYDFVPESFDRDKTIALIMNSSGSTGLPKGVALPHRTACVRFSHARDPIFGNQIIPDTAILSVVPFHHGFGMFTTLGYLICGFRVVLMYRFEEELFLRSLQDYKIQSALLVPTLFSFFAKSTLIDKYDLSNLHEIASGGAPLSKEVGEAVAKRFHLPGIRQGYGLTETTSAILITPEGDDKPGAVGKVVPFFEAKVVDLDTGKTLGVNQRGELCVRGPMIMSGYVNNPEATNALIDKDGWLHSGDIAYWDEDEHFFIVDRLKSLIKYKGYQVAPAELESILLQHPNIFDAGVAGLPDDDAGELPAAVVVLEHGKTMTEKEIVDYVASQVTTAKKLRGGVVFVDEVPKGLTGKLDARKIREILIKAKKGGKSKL

[2] = test system: human fibroblast cells (IMR90); assay: human iPSC derivation from 4F (OSKM)-transduced IMR90 fibroblasts; assay type: cell-based
Method: It has been shown that compound OAC1 (Oct4-activating compound I) and two of its structural analogs OAC2 and OAC3 can enhance reprogramming efficiency, when added to the reprogramming mixture along with the four transcription factors, Oct4, Sox2, Klf4, and c-Myc (OSKM), in mouse system. The OAC compounds were tested to determine if they can enhance reprogramming efficiency in human system. The reprogramming process was performed as described in the diagram (FIG. 14a). Briefly, human fibroblast cells (IMR90) were induced to reprogram into induced pluripotent stem cells (iPSCs) using the four reprogramming factors (4F), OSKM. The day when the cells were transduced with the four reprogramming factors was referred to as day 0. Cells were cultured in IMR90 media for six days. On day 6, the transduced cells were split and seeded onto feeders. On day 7, IMR90 culture media was changed to hESC culture media and started compound treatment. Compound treatment was lasted for one week. Cells were monitored for the appearance of human embryonic stem cell (ESC)-like colonies. On day 9, several small human ESC-like colonies appeared in both 4F+OAC1 and 4F+OAC2-treated cells, however, human ESC-like colonies were not observed in 4F+vehicle (4F)-treated cells until day 11. To determine the effect of OAC on the efficiency of human iPSC derivation, the number of human ESC-like colonies were counted under all three conditions at day 18. Both OAC 1 and its structural analog OAC2 increased the number of human ESC-like colonies more than two-fold (FIG. 14b, c). The human ESC-like colonies were picked from either 4F or 4F+OAC-treated cells and expanded under human ESC culture conditions. These cells were able to expand and stably produce human iPSC clones with characteristic human ESC-like morphology (FIG. 14d).

O=C(Nc1cc2cc[nH]c2cn1)c1ccccc1 [OAC1, N-(1H-6-azaindol-5-yl)benzamide]
OCT4 promoter methylation status versus DMSO (OCT4 promoter): no significant difference | effect on Topflash reporter activity [1]: no effect | EC50 (luciferase): 6.37 µM | day at which human ESC-like colonies appeared ([2]; IMR90, 4F+compound, day 0 = transduction, 4F+vehicle day 11): 9 days | increase in the number of human ESC-like colonies ([2]; IMR90, day 18, versus 4F): more than two
